Assay results from patent US20120184517A1, “TREATMENT OF DISEASES WITH ALTERED SMOOTH MUSCLE CONTRACTILITY” (priority 2009, published 2012).
pIC50: −log10 of the molar value. Values after ≈ are worked out from the molar mass of the structure shown. “Also recorded” adds a separate entry of the source.

Assays:
[1] = cited from earlier work
casein kinase II = casein kinase II (Homo sapiens, UniProt P68400); conditions: cited from earlier work
PKCα = PKCα (Homo sapiens, UniProt P17252); conditions: rottlerin 20 μM, 0.1 mM ATP, phosphatidylserine; cited from earlier work
PKA = PKA (Homo sapiens, UniProt P17612); conditions: 20 μM; cited from earlier work
[2] = test system: mitochondria in intact cells; conditions: cited from earlier work
protein kinase A (PKA) = protein kinase A (PKA) (Homo sapiens, UniProt P17612); conditions: cited from earlier work
[3] = test system: membrane potential of tracheal smooth muscle cells; assay: Membrane potential measurement in tracheal smooth muscle cells; format: cell-based, mice
Protocol: In this experiment, murine tracheal smooth muscle cells were acutely isolated and whole cell patch clamped as previously described (Zakharov, S. et al., (2005) J Biol Chem 280, 30882-30887).
The membrane potential was recorded using perforated patch clamp technique.

[4] = target: glycogen synthase kinase 3β (Homo sapiens, UniProt P49841); conditions: 20 μM; cited from earlier work
BKCa channel = BKCa channel (Homo sapiens, UniProt Q12791); assay: Outside-out single channel recordings of cultured human VSMC; format: cell-based; set-up: Human vascular smooth muscle cells (VSMC) grown in vitro express BKCa channels; endogenous in cells; host or cells: cultured human vascular smooth muscle cells (outside-out patches)
3T3-L1 adipocytes = conditions: read-out: IC50 of insulin-induced glucose uptake; cited from earlier work
guinea pigs = conditions: 10-20 mg/kg/day×6 days; cited from earlier work
rats = conditions: 10-20 mg/kg/day×6 days; cited from earlier work
[5] = target: 3-phosphoinositide-dependent protein kinase-1 (PDK-1) (Homo sapiens, UniProt O15530); conditions: 20 μM; cited from earlier work
PKCδ = PKCδ (Homo sapiens, UniProt Q05655); conditions: cited from earlier work
PKCδ, sequence (Q05655 whole entry): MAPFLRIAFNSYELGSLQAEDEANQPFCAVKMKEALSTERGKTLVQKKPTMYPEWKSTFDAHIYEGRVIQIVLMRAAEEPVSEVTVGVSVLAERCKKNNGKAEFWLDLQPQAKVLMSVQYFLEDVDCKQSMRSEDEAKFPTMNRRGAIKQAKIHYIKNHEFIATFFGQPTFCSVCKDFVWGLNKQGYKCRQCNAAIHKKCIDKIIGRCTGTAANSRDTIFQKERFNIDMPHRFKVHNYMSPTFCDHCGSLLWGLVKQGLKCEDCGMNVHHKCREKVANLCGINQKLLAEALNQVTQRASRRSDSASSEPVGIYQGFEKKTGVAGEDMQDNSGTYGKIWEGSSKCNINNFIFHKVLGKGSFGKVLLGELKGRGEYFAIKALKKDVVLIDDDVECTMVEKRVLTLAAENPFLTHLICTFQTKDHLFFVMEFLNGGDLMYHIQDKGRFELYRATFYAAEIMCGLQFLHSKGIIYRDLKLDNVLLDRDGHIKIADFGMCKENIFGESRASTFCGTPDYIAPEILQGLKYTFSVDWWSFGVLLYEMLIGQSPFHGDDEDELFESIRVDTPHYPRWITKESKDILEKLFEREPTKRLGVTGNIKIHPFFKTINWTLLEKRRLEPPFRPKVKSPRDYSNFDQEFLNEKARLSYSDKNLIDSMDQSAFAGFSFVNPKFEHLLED

BKCa channel, sequence (Q12791 whole entry): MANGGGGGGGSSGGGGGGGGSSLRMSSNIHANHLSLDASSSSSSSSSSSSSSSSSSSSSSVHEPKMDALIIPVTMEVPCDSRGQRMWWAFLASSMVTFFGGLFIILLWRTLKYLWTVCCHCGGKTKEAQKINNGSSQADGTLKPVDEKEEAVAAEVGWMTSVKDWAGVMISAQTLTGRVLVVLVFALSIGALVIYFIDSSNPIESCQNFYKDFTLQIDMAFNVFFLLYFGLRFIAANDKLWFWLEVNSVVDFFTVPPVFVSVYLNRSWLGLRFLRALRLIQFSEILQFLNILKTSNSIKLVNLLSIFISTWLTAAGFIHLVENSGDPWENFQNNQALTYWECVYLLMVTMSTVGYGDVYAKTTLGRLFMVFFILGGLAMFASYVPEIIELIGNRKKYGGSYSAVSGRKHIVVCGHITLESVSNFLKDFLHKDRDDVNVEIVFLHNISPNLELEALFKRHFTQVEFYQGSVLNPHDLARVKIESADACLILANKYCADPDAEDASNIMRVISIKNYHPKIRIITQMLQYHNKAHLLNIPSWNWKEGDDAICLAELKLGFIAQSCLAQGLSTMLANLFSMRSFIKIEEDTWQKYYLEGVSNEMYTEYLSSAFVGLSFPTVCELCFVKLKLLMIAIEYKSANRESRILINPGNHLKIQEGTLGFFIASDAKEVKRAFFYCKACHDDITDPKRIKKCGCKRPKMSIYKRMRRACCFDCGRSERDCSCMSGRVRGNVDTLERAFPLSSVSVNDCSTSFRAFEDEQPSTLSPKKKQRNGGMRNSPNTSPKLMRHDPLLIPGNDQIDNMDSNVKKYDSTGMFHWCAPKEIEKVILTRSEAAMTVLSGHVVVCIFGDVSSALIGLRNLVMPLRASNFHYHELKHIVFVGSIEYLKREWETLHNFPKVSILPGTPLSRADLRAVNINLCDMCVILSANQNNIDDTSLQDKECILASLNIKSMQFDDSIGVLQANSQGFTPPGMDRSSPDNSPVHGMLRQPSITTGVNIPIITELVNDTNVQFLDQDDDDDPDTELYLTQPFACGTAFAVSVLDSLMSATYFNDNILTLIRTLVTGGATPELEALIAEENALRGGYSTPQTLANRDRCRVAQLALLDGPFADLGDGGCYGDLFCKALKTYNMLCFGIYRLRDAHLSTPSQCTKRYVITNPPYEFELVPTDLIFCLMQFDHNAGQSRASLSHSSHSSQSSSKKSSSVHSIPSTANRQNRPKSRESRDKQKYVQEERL
glycogen synthase kinase 3β, sequence (P49841 whole entry): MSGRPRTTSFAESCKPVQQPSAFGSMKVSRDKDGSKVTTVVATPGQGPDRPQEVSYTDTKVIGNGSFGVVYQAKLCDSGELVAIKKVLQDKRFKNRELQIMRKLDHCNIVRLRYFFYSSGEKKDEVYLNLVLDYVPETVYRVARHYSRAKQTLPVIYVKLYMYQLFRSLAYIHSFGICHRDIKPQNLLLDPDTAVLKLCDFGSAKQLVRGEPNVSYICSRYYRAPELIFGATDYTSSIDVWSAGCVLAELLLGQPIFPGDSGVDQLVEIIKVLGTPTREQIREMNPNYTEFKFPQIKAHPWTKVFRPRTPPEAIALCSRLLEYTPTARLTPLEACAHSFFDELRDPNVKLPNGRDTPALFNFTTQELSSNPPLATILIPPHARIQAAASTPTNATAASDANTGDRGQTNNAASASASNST
casein kinase II, sequence (P68400 whole entry): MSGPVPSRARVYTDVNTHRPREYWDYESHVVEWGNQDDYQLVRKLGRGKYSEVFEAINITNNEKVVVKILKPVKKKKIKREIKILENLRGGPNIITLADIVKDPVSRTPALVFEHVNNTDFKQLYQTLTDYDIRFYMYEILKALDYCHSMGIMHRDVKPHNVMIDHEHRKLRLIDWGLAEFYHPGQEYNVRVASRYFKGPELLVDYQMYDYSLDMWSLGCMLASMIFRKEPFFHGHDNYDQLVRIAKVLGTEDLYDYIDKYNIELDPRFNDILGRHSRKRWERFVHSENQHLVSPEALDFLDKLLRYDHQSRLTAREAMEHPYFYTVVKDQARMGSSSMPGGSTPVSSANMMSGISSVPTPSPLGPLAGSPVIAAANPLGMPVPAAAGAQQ
3-phosphoinositide-dependent protein kinase-1 (PDK-1), sequence (O15530 whole entry, species assumed): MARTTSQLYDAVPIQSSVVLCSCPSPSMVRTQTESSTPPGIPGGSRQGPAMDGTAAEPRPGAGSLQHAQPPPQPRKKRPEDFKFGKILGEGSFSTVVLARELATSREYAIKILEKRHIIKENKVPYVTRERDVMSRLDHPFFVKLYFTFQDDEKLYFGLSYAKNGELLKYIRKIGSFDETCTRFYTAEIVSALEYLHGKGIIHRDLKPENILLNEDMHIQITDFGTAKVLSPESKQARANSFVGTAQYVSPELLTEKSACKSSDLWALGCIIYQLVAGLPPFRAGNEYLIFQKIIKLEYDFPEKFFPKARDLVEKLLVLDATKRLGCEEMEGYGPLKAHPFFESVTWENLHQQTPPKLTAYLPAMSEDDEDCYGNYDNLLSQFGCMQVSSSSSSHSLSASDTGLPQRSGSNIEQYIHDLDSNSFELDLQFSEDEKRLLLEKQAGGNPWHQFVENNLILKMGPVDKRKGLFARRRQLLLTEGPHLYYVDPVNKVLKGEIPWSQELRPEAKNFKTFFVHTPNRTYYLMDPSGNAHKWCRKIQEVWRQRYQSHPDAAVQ

Question: What does the source list for CC(=O)c1c(O)c(C)c(O)c(Cc2c(O)c3c(c(C(=O)/C=C/c4ccccc4)c2O)OC(C)(C)C=C3)c1O [rottlerin, 5,7-dihydroxy-2,2-dimethyl-6-(2,4,6-trihydroxy-3-methyl-5-acetylbenzyl)-8-cinnamoyl-I,2-chromene]?
Answer: solubility in DMSO ([1]; DMSO): 100 mM (≈ 51.7 mg/mL); solubility in ethanol ([1]; ethanol): 2 mM (≈ 1.03 mg/mL); pIC50 (casein kinase II): 4.00 to 4.52; effect on PKCα activity (PKCα): virtually no effect; inhibition (PKA): 83%; mitochondrial uncoupling ([2]; 10 μM): uncouple mitochondria; ATP levels ([2]; PKC independent): reduce ATP levels; pIC50 (protein kinase A (PKA)): 4.00 to 4.52; membrane potential ([3]; after rottlerin application (1 μM), FIGS. 11B and 11D): significant hyperpolarization; membrane potential ([3]; perforated patch clamp, rottlerin 2 μM, FIG. 15): significant hyperpolarization; inhibition [4]: 87%; channel open probability (BKCa channel; 0.5 μM rottlerin, outside-out patches, cultured human VSMC): significant increase; Po and open dwell time (BKCa channel; rottlerin 0.5 μM local perfusion, +60 mV): increasing Po and open dwell time; also recorded: significantly increased; pIC50 (3T3-L1 adipocytes): 5.00; fertility rate (guinea pigs): reduce the fertility rate; fertility rate (rats): reduce the fertility rate; inhibition [5]: 64%; pIC50 (PKCδ): 5.22 to 5.52
